What was measured:
Assay type in all cases: cell-based, human
[1] = system: cathepsin B and CRABPII transcription; assay: L1-dependent gene regulation by qPCR in HEK293-hL1wt cells; conditions: preincubation 96 h
Protocol: (§1) (A) Analysis of L1-32 cleavage by γ-secretase. Cells were treated for 48 h at 37° C. with presenilin inhibitor IX (DAPT) or for control with DMSO. Isolated membranes were incubated for 2 h at 37° C. and then separated into pellet or supernatant (SN) fractions by ultracentrifugation. Lanes 1 to 2 show cells treated with DMSO (vehicle). Lanes 3 and 4 show cells preincubated with DAPT. (B) SKOV3ip cells were treated with DAPT either in the presence or absence of the metalloprotease inhibitor TAPI-0 for 24 hr. Cells were lysed in BOG lysis buffer and analyzed by Western blot analysis. The cell supernatant was analyzed for soluble L1 using mAb L1-11A and the cell lysate was examined for L1-32 using peytL1. (C) HEK293 or HEK293-hL1wt cells were treated with DMSO, DAPT, TAPI-0 or both inhibitors for 96 h. mRNA was transcribed to cDNA and analyzed by qPCR for the genes CRABPII and cathepsin B. (D) Analysis of ERK phosphorylation in SKOV3ip cells after treatment with the indicated compounds.
We next investigated whether L1-mediated gene regulation was dependent on L1-processing, by carrying out inhibition experiments. […]
mRNA was isolated using the Quiagen RNAeasy mini kit (Quiagen Hilden, Germany). […] After exposing of the hybridized membranes, the PhosphorImager screens were scanned (Fuji FLA-3000, 100 μm resolution, Fuji BAS-reader software). […]

ERK phosphorylation = ERK phosphorylation in SKOV3ip cells; conditions: treatment with DAPT, TAPI-0
Protocol: as §1
(A) Effect of L1-antibodies on ERK phosphorylation in SKOV3ip cells. The cells were incubated for 24 hr at 37° C. with the indicated purified antibodies to L1 (10 μg/ml) or isotype control IgG. […] Soluble L1 in the supernant and L1-32 in the cell lysate were analyzed by Western blot. (C) mRNA was isolated from antibody treated SKOV3ip cells, transcribed to cDNA and analyzed by qPCR for the indicated genes. […]

[2] = system: L1CAM transfected PT45-P1 cells; assay: Caspase-3/-7 assay in L1CAM transfected PT45-P1 cells; conditions: inhibitor 10 μmol/L, 20 μg/mL etoposide 24 hours
Protocol: PT45-P1res cells (a,b) or PT45-P1 cells transfected with L1CAM or an empty control vector (mock) (c,d) were left untreated (w/o) or were either treated with Tapi-0, Tapi-1, GM6001 or L685,458 (each 10 μmol/L) for 24 hours. (a,c) Cellular lysates were subjected to western blotting using either the antibody clone UJ127 from Acris detecting only full-length L1CAM or the pcytL1 antibody detecting also the cytoplasmic part of L1CAM. HSP90 was detected as a control for equal protein load. (b,d) Thirty minutes after treatment with the respective inhibitor, cells were either left untreated or treated with 20 μg/mL etoposide for 24 hours. Then, cells were analysed for caspase-3/-7 activity expressed as n-fold induction of caspase-3/-7 activity of basal. Means±SD from three independent experiments are shown. * indicates p<0.05.
As described elsewhere (Sebens Müerköster et al., 2006), apoptosis was determined by staining with annexinV/propidium iodide (Biocarta, Hamburg, Germany) and subsequent fluorescence flow cytometry (GalaxyArgon Plus; DAKO Cytomation, Hamburg, Germany) using the FLOMAX software, and by the detection of caspase-3/-7 activity using a homogeneous luminescent assay (Promega, Mannheim, Germany). All samples were measured in duplicates.
For L1CAM transfection, PT45-P1 cells were seeded into 6 well plates (2×10^5 cells/well), were grown overnight, followed by transfection with 5 μL/well DIMRIE reagent (Invitrogen) and 0.6 μg/well of the following plasmids: pcDNA3.1 (mock) or pcDNA3.1-L1CAM (L1CAM). Upon transfection for 18 hours, 1 mL medium containing 20% FCS was added and cells were left untreated or were treated as indicated for further 24 hours. For knock down of L1CAM, PT45-P1res cells were seeded into 12 well plates (1×10^5 cells/well), were grown overnight followed by transfection with 12 μL/well RNAiFect reagent (Invitrogen) and 2 μg/well of either Stealth negative control siRNA (Invitrogen) or Stealth L1CAM siRNA (Invitrogen). After overnight transfection, cells were either left untreated or treated as indicated for further 24 hours.

## CC(C)C[C@H](CC(=O)NO)C(=O)N[C@@H](Cc1ccc2ccccc2c1)C(=O)N[C@@H](C)C(N)=O [TAPI-0]
[1]
  L1-dependent regulation of transcription for cathepsin B and CRABPII: blocked
ERK phosphorylation
  ERK activation in treated cells: did not interfere with ERK activation
[2]
  apoptosis inducing effect of etoposide (caspase-3/-7): nor affect the apoptosis inducing effect of etoposide
